“And” between values parts separate entries of the source, which are not always exact repeats. Identical values can stand only once.
Tested on: Rattus norvegicus
Details: oral, gavage
[1] = developmental, duration: 24 days, M/F, Sprague-Dawley, generation: F1, F1: Whole Body: Pup Weight per Litter, PND1
[2] = reproduction developmental, duration: 24 days, F, Sprague-Dawley, generation: P0, P0: Whole Body: Clinical Signs
[3] = reproduction developmental, duration: 24 days, F, Sprague-Dawley, generation: P0, P0: Whole Body: Feed Consumption, Absolute + P0: Whole Body: Maternal Body Weight Change + P0: Whole Body: Mortality + P0: Whole Body: No. …
[4] = short-term, duration: 28 days, F, Wistar, Adrenal: Adrenal Gland Weight, Absolute + Adrenal: Adrenal Gland Weight, Relative + Kidney: Creatinine (CREAT) + Multi-Organ: Calcium (CA)
[5] = short-term, duration: 28 days, M, Wistar, Blood: Hematocrit (HCT) + Blood: Hemoglobin (HGB) + Kidney: Urea + Liver: Alkaline Phosphatase (ALP) + Liver: Liver, Enlarged + Multi-Organ…
[6] = short-term, duration: 28 days, M, Wistar, Liver: Liver Weight, Absolute + Multi-Organ: Glucose (GLU) + Multi-Organ: Potassium (K)
[7] = subchronic, duration: 90 days, F, Sprague-Dawley, Kidney: Calcium (CA) Excretion + Multi-Organ: White Blood Cell (WBC)
[8] = subchronic, duration: 90 days, M, Sprague-Dawley, Blood: Hematocrit (HCT) + Blood: Hemoglobin (HGB)
[9] = subchronic, duration: 90 days, M, Sprague-Dawley, Blood: Red Blood Cell (RBC) + Liver: Aspartate Aminotransferase (AST) + Multi-Organ: Prothrombin Time (PT)
[10] = reproduction developmental, F, Crl:CD(SD), generation: P0, P0: Endocrine: Adrenal: Adrenal Gland Histopathology + P0: Endocrine: Adrenal: Adrenal Gland Weight, Absolute + P0: Endocrine: Adrenal: …
[11] = reproduction developmental, F, Crl:CD(SD), generation: P0, P0: Hematologic: Multi-Organ: Activated Partial Thromboplastin Time (APTT) + P0: Hematologic: Multi-Organ: Hematocrit (HCT) + P0: …
[12] = reproduction developmental, M, Crl:CD(SD), generation: P0, P0: Endocrine: Adrenal: Adrenal Gland Histopathology + P0: Endocrine: Adrenal: Adrenal Gland Weight, Absolute + P0: Endocrine: Adrenal: …
[13] = reproduction developmental, M, Crl:CD(SD), generation: P0, P0: Hematologic: Multi-Organ: Activated Partial Thromboplastin Time (APTT) + P0: Hematologic: Multi-Organ: Hematocrit (HCT) + P0: …
[14] = short-term, duration: 10 days, M, Sprague-Dawley, Endocrine: Multi-Organ: Follicle Stimulating Hormone (FSH), Serum + Endocrine: Multi-Organ: Leuteinizing Hormone (LH), Serum + Endocrine: …
[15] = short-term, duration: 10 days, M, Sprague-Dawley, Endocrine: Multi-Organ: Testosterone (T), Serum + Reproductive: Epididymis: Epididymis Weight, Absolute + Reproductive: Epididymis: …

Work on `O=C([O-])C(F)(F)C(F)OC(F)(F)C(F)(F)C(F)(F)OC(F)(F)F.[NH4+]` (stereo not given) [Ammonium 4,8-dioxa-3H-perfluorononanoate] yielded an NOAEL (developmental, duration: 24 days, M/F, Sprague-Dawley, generation: F1, F1: Whole Body: Dams with Stillborn Pups + F1: Whole Body: Delivered Litters + F1: Whole Body: Live Pups Born + F1: Whole Body: Mean Pups …) of 270 mg/kg-day, an LOAEL (developmental, duration: 24 days, M/F, Sprague-Dawley, generation: F1, F1: Whole Body: No Milk in Stomach + F1: Whole Body: Pup Weight per Litter, PND4 + F1: Whole Body: Pup Weight per Litter, PND6 + F1: Whole …) of 270 mg/kg-day and an LOAEL [1] of 90 mg/kg-day. It also gave an NOAEL [1] of 30 mg/kg-day, an NOAEL (developmental, duration: 24 days, M/F, Sprague-Dawley, generation: F1, F1: Whole Body: Pup Weight per Litter, PND4 + F1: Whole Body: Pup Weight per Litter, PND6 + F1: Whole Body: Survival, PND1 + F1: Whole Body…) of 90 mg/kg-day and an NOAEL (reproduction developmental, duration: 24 days, F, Sprague-Dawley, generation: P0, P0: Uterus: Resorptions, Early + P0: Whole Body: Feed Consumption, Absolute + P0: Whole Body: Length of Gestation + P0: Whole Body: Length …) of 270 mg/kg-day. It also gave an LOAEL [2] of 90 mg/kg-day, an NOAEL [2] of 30 mg/kg-day and an LOAEL [3] of 270 mg/kg-day. It also gave an NOAEL [3] of 90 mg/kg-day, an LOAEL [4] of 100 mg/kg-day and an NOAEL [4] of 30 mg/kg-day. For the same compound, the NOAEL (short-term, duration: 28 days, F, Wistar, Blood: Activated Partial Thromboplastin Time (APTT) + Blood: Albumin/Globulin (A/G) Ratio + Blood: Hematocrit (HCT) + Blood: Hemoglobin (HGB…) was 100 mg/kg-day, the NOAEL (short-term, duration: 28 days, M, Wistar, Adrenal: Adrenal Gland Weight, Absolute + Adrenal: Adrenal Gland Weight, Relative + Blood: Activated Partial Thromboplastin Time (APTT) + …) was 100 mg/kg-day and the LOAEL [5] was 100 mg/kg-day. It also gave an NOAEL [5] of 30 mg/kg-day, an LOAEL (short-term, duration: 28 days, M, Wistar, Liver: Hepatocellular Hypertrophy + Liver: Liver Weight, Relative + Liver: Total Bilirubin (TBILI)) of 10 mg/kg-day and an LOAEL [6] of 30 mg/kg-day. The NOAEL [6] was 10 mg/kg-day, the NOAEL (subchronic, duration: 90 days, F, Sprague-Dawley, Adrenal: Adrenal Gland Weight, Absolute + Adrenal: Adrenal Gland Weight, Relative + Blood: Activated Partial Thromboplastin Time (APTT) + …) was 100 mg/kg-day and the LOAEL [7] was 100 mg/kg-day. It also gave an NOAEL [7] of 30 mg/kg-day, an NOAEL (subchronic, duration: 90 days, M, Sprague-Dawley, Adrenal: Adrenal Gland Weight, Absolute + Adrenal: Adrenal Gland Weight, Relative + Blood: Activated Partial Thromboplastin Time (APTT) + …) of 10 mg/kg-day and an LOAEL [8] of 3 mg/kg-day. The NOAEL [8] was 1 mg/kg-day, the LOAEL [9] was 10 mg/kg-day and the NOAEL [9] was 3 mg/kg-day.

`O=C(O)C(F)(F)C(F)(F)C(F)(F)C(F)(F)C(F)(F)C(F)(F)C(F)(F)C(F)(F)C(F)(F)C(F)(F)C(F)(F)C(F)(F)C(F)(F)F` [Perfluorotetradecanoic acid] was tested, and the NOAEL (developmental, F, Crl:CD(SD), generation: F1, F1: Developmental: Whole Body: Body Weight, Birth + F1: Developmental: Whole Body: Body Weight, Pup, PND 1 + F1: Developmental: Whole Body: …) was 1 mg/kg-day and 3 mg/kg-day, the NOAEL (developmental, M/F, Crl:CD(SD), generation: F1, F1: Developmental: Whole Body: Litter Size + F1: Developmental: Whole Body: Male Pups per Pups Sexed + F1: Developmental: Whole Body: Mean …) was 1 mg/kg-day and 3 mg/kg-day and the NOAEL (developmental, M, Crl:CD(SD), generation: F1, F1: Developmental: Whole Body: Body Weight, Birth + F1: Developmental: Whole Body: Body Weight, Pup, PND1 + F1: Developmental: Whole Body: …) was 1 mg/kg-day and 3 mg/kg-day. It also gave an LOAEL (reproduction developmental, F, Crl:CD(SD), generation: P0, P0: Cardiovascular: Heart: Heart Histopathology + P0: Cardiovascular: Heart: Heart Weight, Absolute + P0: Cardiovascular: Heart: Heart …) of 3 mg/kg-day, an LOAEL [10] of 3 mg/kg-day and an NOAEL [10] of 1 mg/kg-day. The LOAEL [11] was 10 mg/kg-day, the NOAEL [11] was 3 mg/kg-day and the LOAEL (reproduction developmental, M, Crl:CD(SD), generation: P0, P0: Cardiovascular: Heart: Heart Histopathology + P0: Cardiovascular: Heart: Heart Weight, Absolute + P0: Cardiovascular: Heart: Heart …) was 3 mg/kg-day. It also gave an LOAEL [12] of 3 mg/kg-day, an NOAEL [12] of 1 mg/kg-day and an LOAEL [13] of 10 mg/kg-day. The NOAEL [13] was 3 mg/kg-day, the LOAEL [14] was 20 mg/kg-day and the NOAEL [14] was 10 mg/kg-day. The NOAEL (short-term, duration: 10 days, M, Sprague-Dawley, Endocrine: Multi-Organ: Follicle Stimulating Hormone (FSH), Serum + Endocrine: Multi-Organ: Leuteinizing Hormone (LH), Serum + Whole Body: …) was 20 mg/kg-day, the LOAEL [15] was 20 mg/kg-day and the NOAEL [15] was 10 mg/kg-day.

Source: EPA's ToxValDB 9.5
